Results as given in patent publication US9814739B2, “2′-ethynyl nucleoside derivatives for treatment of viral infections” (priority 2012, dated 2017).
Where two headings read alike, the source gives them in different places.

What was measured:
Dengue polymerase [1] = biological target: T1, Dengue polymerase (Dengue virus type 2, UniProt P29990); assay: biochemical; conditions: Elongation
Dengue polymerase [2] = biological target: T1, Dengue polymerase; assay: biochemical; conditions: De novo
HCV polymerase = HCV polymerase (Hepatitis C virus genotype 1b, UniProt Q9WMX2); assay: biochemical
HCV polymerase, sequence (Q9WMX2 2420-3010 limits assumed): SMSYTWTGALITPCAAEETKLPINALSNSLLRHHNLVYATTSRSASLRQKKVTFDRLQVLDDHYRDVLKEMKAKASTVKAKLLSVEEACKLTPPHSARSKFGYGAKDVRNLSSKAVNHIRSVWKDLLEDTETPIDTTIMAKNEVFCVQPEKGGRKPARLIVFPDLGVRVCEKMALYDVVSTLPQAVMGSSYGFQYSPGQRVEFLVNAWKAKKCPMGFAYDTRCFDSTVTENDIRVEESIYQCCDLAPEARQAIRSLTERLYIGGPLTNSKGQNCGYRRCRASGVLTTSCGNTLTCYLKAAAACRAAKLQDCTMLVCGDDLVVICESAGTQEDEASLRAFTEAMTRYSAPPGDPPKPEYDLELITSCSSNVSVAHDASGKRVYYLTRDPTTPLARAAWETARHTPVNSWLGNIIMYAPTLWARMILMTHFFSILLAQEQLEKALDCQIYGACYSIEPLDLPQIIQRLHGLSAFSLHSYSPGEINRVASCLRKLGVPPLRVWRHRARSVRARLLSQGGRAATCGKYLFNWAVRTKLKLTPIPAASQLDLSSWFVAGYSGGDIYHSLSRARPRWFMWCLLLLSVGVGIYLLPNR

Dengue virus = assay: Dengue assay on cryopreserved PBMC cells (plaque reduction readout on BHK cells); assay type: cell-based; conditions: human PBMC cells
Protocol: Cryopreserved human PBMC cells were purchased from approved vendors. It was then thawed according to manufacturer's instructions and suspended in RPMI medium supplemented with 1% penicillin/streptomycin solution and 10% Fetal Calf serum. The cells were then counted and viability checked (viability should be at least 70%). After centrifuging and removing the media, the cells were diluted to 1×10^7 cells/mL in RPMI medium supplemented with 1% penicillin/streptomycin. 50 μl of the cells were then dispensed into 96-well tissue culture plate constituting 5×10^5 cells/well. Next, virus with humanized 4G2 mixture was prepared for infection. Briefly, virus (2×10^7 pfu/ml) was mixed with humanized 4G2 antibody with the final antibody concentration of 0.38 μg/ml and incubated for 30 minutes at 4° C. to assist virus/antibody complex formation. The virus-antibody complex was then added to the PBMC at multiplicity of infection (M.O.I) of 0.5. The resulting media was then and further incubated the plates at 37° C. in the humidified incubator for infection to take place. Serial diluted compounds were then added and finally media was added such that the final media volume was 200 μl with 2% Fetal Calf Serum. The plates were then incubated at 37° C., 5% CO2 for another 48 hours. The extent of the infection and compound inhibition was measured by plaque reduction assay using BHK cells. Briefly, BHK cells grown in 24-well tissue culture were subjected to supernatants derived from infection containing serial diluted compounds. After additional 4 days, the monolayer of BHK cells were fixed, stained with crystal violet stain and plaques counted. Dose response curves were plotted from the mean absorbance (n=3) versus the log of the concentration of test compounds. The EC50 is calculated by nonlinear regression analysis. A positive control (7-deaza-2′-C-acetylene-adenosine) was used to ensure the quality of the data.

[3] = 4 day CCK-8 cytotoxicity assay using THP-1 cells; assay type: cell-based; conditions: human, read-out: Dengue CC50 (THP-1)
Protocol: 3) Protocols for Automated 4 Days CCK8 (Dojindo) Cytotoxicity Assay in HepG2 and THP-1 Cells • 1. 25 μL of HepG2 suspension containing 1.6×10^4 cells/ml (400 cells/well) or 25 μL of THP-1 suspension containing 8×10^4 cells/ml (2000 cells/well) was dispensed into a clear 384-well plate by GNF dispenser 2B vertical-head. • 2. The plate was pre-incubated for 24 h in the GNF incubator (humidified, 37° C., 5% CO2). • 3. Serial-diluted compound were directly transferred into the culture media in the plate (200× dilution). • 4. Plates were incubated for 96 hours in the GNF incubator. • 5. CCK-8 was thawed on the bench-top, and was pre-diluted with media (2.5× dilutions). • 6. 35 μL of 2.5× diluted CCK8 was added to each well of the plate by GNF dispenser 1C angled-head. • 7. The plates were incubated for 3 hours in the incubator. • 8. The absorbance at 450 nm was measured by Envision. Dengue Assay on Cryopreserved PBMC Cells
THP-1 cells grown in suspension were counted and diluted to 8×10^4 cells/ml in RPMI-1640 media supplemented with 10% fetal bovine serum and 1% penicillin/streptomycin. 25 ul of the THP-1 containing media consisting of 2000 cells were dispensed in 384-well tissue culture plate and pre-incubated at room temperature for 30 minutes, followed by 37° C., 5% CO2 overnight in the humidified incubator. On the next day, serial-diluted compound plates were prepared and 125 nl of compounds at various concentrations were then dispensed into the tissue culture well (200× dilution). The plates were then transferred to 37° C., 5% CO2 humidified incubator for additional 96 hours. Cytotoxicity was measured by CCK-8 assay. Briefly, CCK-8 was thawed on bench top and diluted 2.5× with the growth media. 35 ul of the pre-diluted CCK-8 was then introduced into each well and the plates were then further incubated in 37° C., 5% CO2 humidified incubator for 3 hours. The absorbance was read by Envision at 450 nm. Dose response curves were plotted from the mean absorbance (n=2) versus the log of the concentration of test compounds. The EC50 is calculated by nonlinear regression analysis. A positive control (puromycin) was used to ensure the quality of the data.

[4] = tested on: GT1b HCV luciferase replicon; assay: HCV replicon antiviral EC50 assay; assay type: cell-based, Hepatitis C virus
[5] = tested on: Replicon cells, expressing the GT1b HCV luciferase replicon
in vitro = conditions: HCV GT1b CC50 (uM)

T1 sequence (P29990 2492-3391 limits assumed): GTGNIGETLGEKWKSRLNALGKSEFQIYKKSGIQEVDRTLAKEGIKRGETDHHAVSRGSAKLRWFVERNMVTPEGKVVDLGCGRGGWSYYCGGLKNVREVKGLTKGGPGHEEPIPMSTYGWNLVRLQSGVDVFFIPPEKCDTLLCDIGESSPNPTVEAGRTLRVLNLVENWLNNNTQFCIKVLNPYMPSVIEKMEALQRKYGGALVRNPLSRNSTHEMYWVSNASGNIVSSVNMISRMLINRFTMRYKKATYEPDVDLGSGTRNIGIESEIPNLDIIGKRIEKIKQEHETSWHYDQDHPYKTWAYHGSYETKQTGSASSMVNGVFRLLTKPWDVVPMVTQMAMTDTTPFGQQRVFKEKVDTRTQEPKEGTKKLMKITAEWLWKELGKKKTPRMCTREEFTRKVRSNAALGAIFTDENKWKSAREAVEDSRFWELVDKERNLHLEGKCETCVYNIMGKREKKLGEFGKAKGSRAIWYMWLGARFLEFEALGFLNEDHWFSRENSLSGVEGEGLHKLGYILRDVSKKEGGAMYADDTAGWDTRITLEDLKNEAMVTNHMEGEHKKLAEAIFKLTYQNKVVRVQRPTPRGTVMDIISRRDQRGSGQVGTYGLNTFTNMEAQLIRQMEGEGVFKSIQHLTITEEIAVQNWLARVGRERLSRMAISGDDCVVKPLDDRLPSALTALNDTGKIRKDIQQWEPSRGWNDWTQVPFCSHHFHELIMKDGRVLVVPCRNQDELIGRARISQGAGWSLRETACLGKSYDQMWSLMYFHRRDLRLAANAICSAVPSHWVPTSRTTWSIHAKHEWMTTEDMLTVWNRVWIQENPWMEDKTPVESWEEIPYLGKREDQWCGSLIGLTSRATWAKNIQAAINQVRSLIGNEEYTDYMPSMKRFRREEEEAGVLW

| SMILES | IC50 (Dengue polymerase [1]) | IC50 (Dengue polymerase [2]) | IC50 (HCV polymerase) | EC50 (Dengue virus; Dengue virus, PBMC, 48 h) | EC50 (Dengue virus; 48 hours) | CC50 at 96 h [3] | EC50 ([4]; Hepatitis C virus, GT1B, 72 h, read-out: HCV GT1b EC50 (uM)) | EC50 ([4]; read-out: HCV GT1b EC50) | CC50 [5] | CC50 (in vitro) |
| --- | --- | --- | --- | --- | --- | --- | --- | --- | --- | --- |
| CC#C[C@@]1(O)[C@H](O)[C@@H](COP(=O)(O)OP(=O)(O)OP(=O)(O)O)O[C@H]1n1ccc(=O)[nH]c1=O [Example 1.9, ((2R,3R,4R,5R)-5-(2,4-dioxo-3,4-dihydropyrimidin-1(2H)-yl)-3,4-dihydroxy-4-(prop-1-yn-1-yl)tetrahydrofuran-2-yl)methyl tetrahydrogen triphosphate] | 2100 nM | 3400 nM | – | – | – | – | – | – | – | – |
| C#C[C@@]1(O)[C@H](O)[C@@H](COP(=O)(O)OP(=O)(O)OP(=O)(O)O)O[C@H]1n1ccc(=O)[nH]c1=O [Example 1.8, ((2R,3R,4R,5R)-5-(2,4-dioxo-3,4-dihydropyrimidin-1(2H)-yl)-4-ethynyl-3,4-dihydroxytetrahydrofuran-2-yl)methyl tetrahydrogen triphosphate] | 1200 nM | 2900 nM | 8300 nM | – | – | – | – | – | – | – |
| C#C[C@@]1(O)[C@H](O)[C@@H](CO[P@@](=O)(N[C@@H](C)C(=O)OC(C)C)Oc2ccccc2)O[C@H]1n1ccc(=O)[nH]c1=O (single isomer, unassigned) [Example 1] | – | – | – | 400 nM | 230 nM | > 50000 nM | 0.066 µM | 0.098 µM | > 20000 nM | > 25 µM |
